From patent US11259522B2, “Control of resistant pests” (priority 2017, dated 2022) come the findings set out here.

Data set [1] has as its system Halotydeus destructor resistant population (synthetic pyrethroid resistance). As to the kind of experiment: Coated plastic vial bioassay, redlegged earth mite, resistant population. The class given is in vivo. Particulars: 24 hours exposure; for LC50: Halotydeus destructor, 24 h. The protocol:
(§1) The test compositions included 0.1% Tween 20 non-ionic surfactant to aid the spread of insecticides when coating plastic vials. This concentration of Tween 20 has been previously shown to have no toxic effect on H. destructor. For each insecticide concentration tested, 3, 10, 30, 100, 300, 1000, 3000 and 10000 mg a.i./L (ppm), approximately 10 mL of solution was poured into a 15 mL plastic vial and swirled to ensure a complete coating, with excess liquid removed. Eight vials were coated per concentration and were left to dry overnight. Control vials were treated in the same way but with water used in place of test composition.
Eight susceptible H. destructor mites were then placed into each vial along with a leaf of common vetch (Vicia sativa). The leaf was added to provide food and increase humidity. Vials were then sealed with a lid and placed at 18° C. After 4, 6, 8 and 24 hours of exposure, the mites were scored as alive (moving freely), incapacitated (inhibited movement), or dead (no movement over a 5 second period).
The resistant population of H. destructor was collected from a lucerne paddock in the Upper South-East district of South Australia, where resistance to synthetic pyrethroids was confirmed in late 2016.
(§2) The data produced in the assays were assessed for concentrations that caused 50, 90 and 99% mortality (lethal concentration, LC), together with 95% confidence intervals (CIs) and were estimated from observations of mortality after 24 hours exposure using a binomial logistic regression (Robertson & Preisler, 1992, Pesticide Bioassays with Arthropods. CRC: Boca Raton; Venables & Ripley, 2002, Modern Applied Statistics with S. Springer: New York). Population differences were tested by comparing the change in model deviance with and without the population factor (different regression intercepts for each population). Differences in regression slopes between populations were tested by comparing the change in model deviance with and without the population×dose interaction term. The resistance ratio of the insecticide-resistant population was estimated as the ratio of its LC50 to that of the susceptible population. All analyses were performed using R 3.3. (R Core Team 2017, R: A language and environment for statistical computing. R Foundation for Statistical Computing, Vienna, Austria. http://www.R-project.org).

Data set [2] has as its system Halotydeus destructor susceptible population. The data set is described as follows: Coated plastic vial bioassay, redlegged earth mite, susceptible population. The class given is in vivo. Particulars: for LC50: Halotydeus destructor, read-out: LC50 (mg a.i./L). The method, then: The efficacy of flavesone against H. destructor was assessed using the glass vial technique developed by Hoffmann et al. (1997, Exp. Appl. Acarol., 21:151-162), adapted for plastic vials. A susceptible population of mites was collected from capeweed (Arctotheca calendula) at a Victorian site (37° 40′33″S, 145° 07′ 45″E) that had no known history of insecticide application. Following collection, samples were stored in small plastic containers with leaf material and paper towel to absorb excess moisture. Containers were kept at 4° C. prior to testing.
as §1
Eight susceptible H. destructor mites were then placed into each vial along with a leaf of common vetch (Vicia sativa). The leaf was added to provide food and increase humidity. Vials were then sealed with a lid and placed at 18° C. After 4, 6, 8 and 24 hours of exposure, the mites were scored as alive (moving freely), incapacitated (inhibited movement), or dead (no movement over a 5 second period). […]
as §2

The test system of data set [3] is Rhyzopertha dominica strain QRD1440 (resistant to OP protectants and pyrethroids). As to the kind of experiment: Grain protectant bioassay on treated wheat, resistant lesser grain borer. Particulars: Example 5, QRD1440, replicates A, B, C; for F1 Progeny count No. dead/total: further 6 weeks.
The subject of data set [4] is Rhipicephalus microplus larvae, susceptible non-resistant field strain (NRFS). As to the kind of experiment: Larval packet test (LPT), cattle tick larvae, susceptible strain. The class given is in vivo. Particulars: for LC50 (ppm) / LC99 (ppm): NRFS, 24 hours, Probit analysis; for mortality at 1250 ppm: 1,250 ppm. The method, then: The larval packet test (LPT) is a modification of that first described by Stone and Haydock (1962, Bull. Entomol. Res., 563-578, http://dx.doi.org/10.1017/5000748530004832X) for evaluation of field resistance in cattle tick (Rhipicephalus microplus) larvae.
The first LPT assay was conducted to identify the potential range of flavesone acaricidal activity against larvae of a susceptible non-resistant field strain (NRFS) of R. microplus as a reference strain using a wide range of concentrations (1 in 10 in series).
The test compound, flavesone, 6-isobutyryl-2,2,4,4-tetramethylcyclohexane-1,3,5-trione, 96.7%, was used. As its volatility/evaporative properties were unknown, the LPT method was modified to incorporate the use of suitably-sized polyethylene plastic sheets to envelop the larval packets, minimizing exposure of the test active to the atmosphere.
In addition, the use of the solvent trichloroethylene (TCE) was removed to avoid the time required for evaporation in the preparation of test papers. The test solutions were prepared in olive oil only at the diluent and the papers immediately enveloped in the plastic sheets and sealed with bulldog clips to minimize evaporation.
A stock solution with a concentration of 100,000 ppm (10%) flavesone was prepared in olive oil as the diluent (1.035 mL flavesone (96.7%) to 8.965 mL olive oil) and then further diluted 1 in 10 in series to also give 10,000 ppm, 1,000 ppm, 100 ppm, 10 ppm and 1 ppm concentration. The negative control was olive oil only. No positive control was included in this experiment. Due to the viscosity of the olive oil, all solutions were prepared using reverse pipetting technique.
(§3) Filter papers (75 mm×85 mm Whatman® No. 541), with grid patterns, were impregnated on ½ of the paper with 225 μL of each solution using a micro-pipette and immediately folded in half, enveloped in polyethylene plastic and sealed with 3 bulldog clips. The impregnated papers were kept at room temperature on aluminium trays for a minimum of 60 minutes to allow for dispersal across the grid pattern of the paper prior to aliquoting of larvae. The packets were prepared in duplicate for each concentration, including the negative control.
An 8 dram vial containing approximately 20,000 hatched 7-21 day old NRFS larvae (about 1 g eggs) was opened and set up on a moated tray with a small amount of detergenated water, about 15 to 30 minute before use. Only larvae that migrated to the top of the vial were used in the assay.
(§4) Aliquots of approximately 100 larvae were placed into each packet using plastic disposable forceps and the packets resealed and incubated and 27° C. and 85% relative humidity (RH).
(§5) After 24 hours, the larval packets were opened and the numbers of dead and live larvae were counted under a magnification lamp. Percentage mortality was calculated and, where applicable, corrected using Abbott's Formula (Abbott, 1925, J. Economic Entomology, 18:256-257): […]
(§6) LC50 and LC99 values were determined by Probit mortality vs log concentration analysis. Probit values were derived from “Transformation of Percentages to Probit's Tables” published by Fisher R. A. and Yates F. (1938).
(§7) The LPT Assay of Example 1 was repeated using a narrow range of concentrations, 1 in 2 series, of flavesone to determine LC50 and LC99 values against the susceptible NRFS and the multi-resistant Tiaro reference strain.
The stock solution of flavesone (100,000 ppm) was diluted 1 in 10 with olive oil (1 mL to 9 mL diluent) to give 10,000 ppm, which was then further diluted 1 in 2 in series (5 mL to 5 mL diluent) to give 5,000 ppm, 2,500 ppm, 1,250 ppm, 625 ppm, 312.5 ppm and 156.25 ppm concentrations. […]

Data set [5] has as its system Rhipicephalus microplus larvae, multi-resistant Tiaro reference strain. As to the kind of experiment: Larval packet test (LPT), cattle tick larvae, multi-resistant strain. The class given is in vivo. Particulars: Example 2, 24 hours. The method, then:
as §3, §4, §5, §6, §7
The Tiaro strain of R. microplus comprises of about 30% fluazuron, 60.6% cypermethrin (SP), 57.6% flumethrin (SP), 16.2% amitraz (amidine), 11.3% DDT, 9.3% chlorpyrifos (OP) and 2.4% dieldrin resistance [2014 acaricide resistance profiling].
The stock solution of flavesone (100,000 ppm) was diluted 1 in 10 with olive oil (1 mL to 9 mL diluent) to give 10,000 ppm, which was then further diluted 1 in 2 in series (5 mL to 5 mL diluent) to give 5,000 ppm, 2,500 ppm, 1,250 ppm, 625 ppm, 312.5 ppm and 156.25 ppm concentrations.
For the preparation of the positive control, cypermethrin, a stock solution of a concentration of 10,000 ppm was prepared in 2:1 trichloroethylene (TCE)/olive oil as the solvent ([…] cypermethrin, 94.8% purity, to 10 mL solvent) and then further diluted 1 in 2 in series (5 mL to 5 mL solvent) to also give 5,000 ppm, 2,500 ppm, 1,250 ppm, 625 ppm, 312.5 ppm and 156.25 ppm.
The flavesone papers were prepared as in Example 1.
The cypermethrin papers were impregnated with 670 μL of each solution using a micro-pipette and hung on a rack in a fume-hood to allow papers to dry (evaporation of TCE) for a minimum of 60 minutes. The papers were then folded in half and sealed with three bulldog clips, placed on aluminium trays prior to aliquoting the larvae. All packets were prepared in duplicate.
A dose-response relationship was determined at 24 hours contact exposure.
Concentrations of 1,250 ppm, 625 ppm and 312.5 ppm flavesone concentrations prepared for Example 3 were used on the same day of preparation. Duplicate papers were prepared for both the NRFS and Tiaro strains (including negative controls) as described in Example 2.
Mortality was assessed at 48 hours and LC50 and LC99 values were determined by Probit mortality vs log concentration analysis.

Setting [6] is: Susceptible population, 24 hours exposure.
[7] abbreviates: Rhipicephalus microplus, 24 h, Example 2.
[8] abbreviates: Rhipicephalus microplus, 24 h, Example 3.

Values after ≈ are worked out from the molar mass of the structure shown. Values joined by “and” are separate entries in the source; they are usually repeats but may differ in a detail not shown here. Identical values can stand only once. Like-named read-outs stand apart in the source and are kept apart here.

Take `Cc1c(COC(=O)[C@@H]2[C@H](/C=C(\Cl)C(F)(F)F)C2(C)C)cccc1-c1ccccc1` (racemic) [Bifenthrin, bifenthrin]: the “resistance ratio (LC50 of resistant population to that of susceptible population)” value in data set [1] is on record as “about 3,500 times”. In data set [1] (Resistant population, read-out: LC50 (mg a.i./L)), the LC50 was 144 µg/mL (≈ 340 µM). In addition, in data set [1] (Resistant population), the “LC90 (mg a.i./L)” value was 5.4 × 10^5 mg a.i./L and the “LC99 (mg a.i./L)” value is 4.3 × 10^9 mg a.i./L. In data set [2] (setting [6]), the LC50 amounted to 0.04 µg/mL (≈ 0.0946 µM), the “LC90 (mg a.i./L)” value is reported as 2.66 mg a.i./L and the “LC99 (mg a.i./L)” value is given as 233.10 mg a.i./L.
Regarding `CCOP(=S)(OCC)Oc1nc(Cl)c(Cl)cc1Cl` [Chlorpyrifos, chlorpyrifos, reference compound], the “resistance ratio (LC50 of resistant population to that of susceptible population)” value in data set [1] was 6.5 times. Besides, the LC50 in data set [1] (read-out: LC50 (mg a.i./L), Resistant population) stood at 1.37 µg/mL (≈ 3.91 µM); in data set [2] (24 h), 0.21 µg/mL (≈ 0.599 µM). Moreover, the “LC90 (mg a.i./L)” value worked out at 7.76 mg a.i./L in data set [1] (Resistant population) and 0.76 mg a.i./L in data set [2] (setting [6]). Moreover, the “LC99 (mg a.i./L)” value in data set [1] (Resistant population) worked out at 51.56 mg a.i./L; in data set [2] (setting [6]) it was 3.18 mg a.i./L. The “F1 Progeny count No. dead/total” value in data set [3] (5 ppm on wheat) was 2/470 and 3/172 and 3/355; in data set [3] (10 ppm on wheat) it was 1/350 and 0/317 and 2/232. The “14 Day adult mortality No. dead (total)” value in data set [3] (5 ppm on wheat) is 0/50 (2×) and 1/50; in data set [3] (10 ppm on wheat), 0/50.
Take `CC1(C)C(C=C(Cl)Cl)C1C(=O)OC(C#N)c1cccc(Oc2ccccc2)c1` (centres unmarked) [Cypermethrin, cypermethrin, reference compound]: the “LC50 (ppm)” value is 128 ppm in data set [4] (Example 2); 112 ppm in data set [4] (Example 3); 3082 ppm in data set [5] (Tiaro, Probit analysis). Further, the “LC99 (ppm)” value was 540 ppm in data set [4] (Example 2); 317 ppm in data set [4] (Example 3); >10,000 ppm in data set [5] (Tiaro, Probit analysis). Further, the mortality at 2.5 ppm in data set [4] (Rhipicephalus microplus, 24 h, Example 2, 2.500 ppm) amounted to 100%; in data set [5] (Rhipicephalus microplus, 2.500 ppm), 59.7%. In addition, the mortality at 156.25 ppm turned out to be 67.3% in data set [4] (setting [7]); 79.6% in data set [4] (setting [8]); 0.56% in data set [5] (Rhipicephalus microplus, 156.25 ppm). In addition, the mortality at 312.5 ppm in data set [4] (setting [7]) worked out at 89%; in data set [4] (setting [8]), 99.2%; in data set [5] (Rhipicephalus microplus, 312.5 ppm), 20.4%. Besides, the mortality at 625 ppm in data set [4] (setting [7]) is 99.6%; in data set [4] (setting [8]), 100%; in data set [5] (Rhipicephalus microplus, 625 ppm), 21.9%. The mortality at 1250 ppm in data set [4] (setting [7]) turned out to be 100%; in data set [4] (setting [8]), 100%; in data set [5] (Rhipicephalus microplus, 1,250 ppm), 20.9%. Also, the mortality at 5000 ppm turned out to be 100% in data set [4] (Rhipicephalus microplus, 24 h, Example 2, 5,000 ppm) and 62.2% in data set [5] (Rhipicephalus microplus, 5,000 ppm). The mortality at 10000 ppm in data set [4] (Rhipicephalus microplus, 24 h, Example 2, 10,000 ppm) stood at 100%; in data set [5] (Rhipicephalus microplus, 10,000 ppm) it was 66.8%. In data set [4] (Rhipicephalus microplus, 24 h, Example 3, 39.0625 ppm), this compound had a mortality at 39.0625 ppm of 0%. For the same compound, in data set [4] (Rhipicephalus microplus, 24 h, Example 3, 78.125 ppm), the mortality at 78.125 ppm was found to be 20.6%.

By mortality is commonly meant the share of the test organisms that died.
